The target of one series is T1, human galectin-1 (gal-1) (Homo sapiens, UniProt P09382).
T1 construct: made in house; host or cells: E. coli BL21 (DE3)
Description: 1H-15N HSQC NMR binding of OTX-008 to 15N-labeled gal-1. The note with it: total gal-1 monomer 60 μM, pH 7.0, 30° C., HSQC intensity changes averaged over all resonances; read-out: Kd, estimate from mid-point of saturable binding curve (free OTX-008 at 50% intensity change). How it is done: Galectin-1 preparation. […] Typically, 44 milligrams of purified protein were obtained from 1 liter of cell culture. The purity of the final sample was quantified by using the Biorad protein assay and was checked for purity by using SDS PAGE. Functional activity of the purified protein was assessed by a T-cell death assay (Nesmelova et al., 2008, Biomol NAR Assignments; 2(2):203-205).
Heteronuclear NMR Spectroscopy. […]
NMR experiments were carried out at 30° C. on a Varian Unity Inova 600-MHz spectrometer equipped with an H/C/N triple-resonance probe and x/y/z triple-axis pulse field gradient unit. […] Raw data were converted and processed by using NMRPipe (Delaglio et al., 1995, J Biomol NMR; 6(3):277-293) and were analyzed by using NMRview (Johnson, 2004, Methods Mol Biol; 278:313-352).
Although an accurate equilibrium ligand dissociation constant, Kd cannot always be determined from data such as these, a plot of OTX-008-induced intensity changes averaged over all resonances vs. the concentration of OTX-008 does yield a saturable binding curve (inset of FIG. 2). […]

For another series, the system named is Jurkat E6.1 cells. Briefly: Agglutination assay, gal-1 induced. The format is cell-based. As to conditions: Homo sapiens, 20 μM OTX-008, 1 μM gal-1, 22° C., read-out: inhibition of cell agglutination. The procedure: FIG. 7 depicts Jurkat E6.1 cells agglutination as induced by addition of 1 μM gal-1 and incubated at 22° C. on plastic, round bottom chamber slides (Nunc, Naperville, Ill., USA), in medium alone or in the presence of 20 μM OTX-008 (“0118”).
Agglutination Assay. Jurkat E6.1 cells (2×10^6/200 μL RPMI 1640 medium) agglutination was induced by 1 μM gal-1 and were incubated on plastic round bottom chamber slides (Nunc, Naperville, Ill., USA) in medium alone or with 20 μM OTX-008 at 22° C. Subsequently the cells were analyzed for agglutination with an Axiovert 10 inverted phase microscope equipped with a digital camera system (Zeiss, Germany), and digitally analyzed and differentially quantified by morphometric analysis, as described earlier (Dings et al., 2008, Cancer Lett; 265(2):270-280; and Dings et al., 2010, Bioconjugate Chem; 21(1):20-27).

A further series has as its system human cancer cell lines. Description: Cell viability assay (MTT). The format is cell-based. The note with it: 72 h drug exposure, 48 h wash-out. From the text:
FIGS. 8A-8C illustrate the concentration of OTX-008 (“0118”) required for inhibiting cell viability is proportional to Gal-1 expression. FIG. 8A illustrates the anti-viability effects (expressed as % change in cell numbers over time) of OTX-008 using the MTT assay in human cancer cell lines. FIG. 8B illustrates cancer cells that are sensitive to OTX-008 expressed […] galectin-1 protein expression as determined using Western Blot analysis. FIG. 8C illustrates that concentration of OTX-008, as established by plotting the IC50 in cancer cells, is proportional to their relative LGALS1 mRNA expression as assessed by qRT-PCR.
Cell lines. HEP2, SQ20B, HT29, DU145, and SKHEP1 cells were obtained from the ATCC (Rockville, Md., USA). COL0205-S cells were obtained from the National Cancer Institute collection. […]
Cell viability assay. Cell viability (i.e. cell proliferation and/or cytotoxicity) was determined using the MTT assay (3-[4,5-dimethylthiazol-2-yl]-2,5-diphenyltetrazolium bromide; Sigma, Saint-Quentin Fallavier, France). […] After incubation, the supernatant was discarded, insoluble formazan precipitates were dissolved in 0.1 mL of DMSO and the absorbance was measured at 560 nm by use of a microplate reader (Thermo, France). […] IC50 was determined as half the maximal inhibitory drug concentration for each cell line.

For series [1], the target named is T2, gal-1 binding to cell surface glycans on splenocytes (CD4+ and CD8+ leukocytes, CD31+ endothelial cells) (Homo sapiens, UniProt P09382).
T2 construct: made in house; host or cells: E. coli BL21 (DE3) (the only gal-1 preparation described)
Description: Flow cytometry: FITC-gal-1 binding to cell surface glycans on splenocytes. The format is cell-based, gal-1 null mice. As to conditions: for inhibition at 20 µM: 20 μM OTX-008, 0.1 μM gal-1; for inhibition at 100 µM: 100 μM OTX-008. How it is done:
FIGS. 6A and 6B depict the results of flow cytometry used to assess the effects of OTX-008 (“0118”) on FITC-gal-1 binding to splenocytes (CD4+ and CD8+ leukocytes and CD31+ endothelial cells). FIG. 6A illustrates the binding of FITC-gal-1 (0.1 μM or 0.2 μM) to these cells as a function of OTX-008 concentration. FIG. 6B illustrates the binding to CD4+ and CD8+ leukocytes and CD31+ endothelial cells derived from male or female gal-1−/− null mice. FITC-Galectin-1 preparation. Gal-1 was conjugated with fluorescein isothiocyanate (FITC) using a FITC:protein molar ratio of 10:1. Gal-1 (2 mg/ml) was dissolved in […] of 20 mM potassium phosphate buffer, pH 7.4, followed by addition of approximately 50 μL FITC (10 mg/ml) that had been dissolved in 0.1 mM sodium bicarbonate. The resulting lower pH (approximately pH 8) ensured selective labeling at the N-terminal amine group of the protein (Hungerford et al., 2007, Photochem Photobiol Sci; 6(2):152-158; and Hermanson, 2008, Bioconjugate Techniques, 2nd ed.; Academic Press: Burlington, Mass. Part 1, 1202 pp). This solution was then mixed thoroughly and incubated at room temperature (22° C.) for 18 hours in the dark. During the course of the reaction, the mixture was gently vortexed 3 or 4 times. The resulting FITC-labeled protein was separated from unbound dye by filtration using an Amicon Ultra cellulose filter (Millipore, 10 kDa cut-off). […] Flow Cytometry. Male and female gal-1 null mice (Jackson Laboratory) were provided water and standard chow ad libitum and were maintained on a 12-hour light/dark cycle prior to experiments that were approved by the University of Minnesota Research Animal Resources Ethical Committee. For FACS experiments, spleens from these mice (6-10 weeks old) were harvested and non-enzymatically disrupted by shear force to yield single-cell suspensions (Dings et al., 2011, Clin Cancer Res; 17(10):3134-3145). Cell suspensions were prepared in Hanks's balanced solution. Red blood cells were lysed in ACK (Lonza Walkersville) for 5 minutes on ice and suspensions were filtered through nylon mesh. Spleen cells were then washed and incubated with monoclonal antibodies as indicated for 40 minutes on ice. After an additional washing step, various concentrations of gal-1 (with or without OTX-008) were added and incubated for 30 minutes on ice. Prior to FACS analysis, cell suspensions were washed once more and analyzed by multi-parameter flow cytometry on a LSR II flow cytometer (BD Biosciences) using Flowjo software (Tree Star, Inc.) (Dings et al., 2011, Clin Cancer Res; 17(10):3134-3145).
For orientation: In flow cytometry, cells or beads pass a laser one at a time.

Series [2] can be described thus: Phase I clinical trial with terminal cancer patients. The format is in vivo, human. The note with it: preliminary, daily subcutaneous injection, 1 mg/Kg. From the text:
In an embodiment, OTX-008 is a therapeutic agent for use against cancer. As a therapeutic agent, calixarene OTX-008 is a significant improvement over both Anginex and 6DBF7, as well as over any carbohydrate-based compound, for multiple reasons. OTX-008 (937 Da) approaches the generally accepted definition of a “small molecule” (i.e. <500 Da). OTX-008 should have better in vivo exposure, because it is non-peptidic and non-carbohydrate, and therefore is non-hydrolyzable. Moreover, because of its aryl-crown structure, OTX-008 should be chemically stable and less likely to be metabolized in vivo than any peptide or carbohydrate-based compound. […] In an embodiment, OTX-008 is a promising anti-tumor agent that targets galectin-1 as a first-in-class therapeutic agent.

Setting [3] is: read-out: inhibition of gal-1 binding to CD4+ (or CD8+) cells.
The mark [4] stands for this setting: read-out: inhibition of gal-1 binding to CD31+ cells.

SMILES strings stand for the structures. Read-outs that look alike come from different tables or passages of the source.

This is an account of results in US20140121278A1, “ANTI-TUMOR AGENT OTX-008 TARGETS HUMAN GALECTIN-1” (REGENTS OF THE UNIVERSITY OF MINNESOTA, priority 2012, published 2014).

T2 sequence (P09382 whole entry): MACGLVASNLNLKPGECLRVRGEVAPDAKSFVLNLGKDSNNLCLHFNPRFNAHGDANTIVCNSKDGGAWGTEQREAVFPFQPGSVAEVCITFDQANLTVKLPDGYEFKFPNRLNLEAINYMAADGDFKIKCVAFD
T1 sequence (P09382 whole entry): as above

Broadly, the Kd is a measure of binding affinity in units of concentration. By inhibition is commonly meant how much of the control response was suppressed. By half-life is commonly meant the time in which the quantity being followed falls by half. Read a high half-life as slow loss. For `CN(C)CCNC(=O)COc1c2cccc1Cc1cccc(c1OCC(=O)NCCN(C)C)Cc1cccc(c1OCC(=O)NCCN(C)C)Cc1cccc(c1OCC(=O)NCCN(C)C)C2` [OTX-008], the Kd at human galectin-1 (gal-1) is around 30 µM. Also, the inhibition at 20 µM is around 80% in the series with Jurkat E6.1 cells, around 80% in series [1] (setting [3]) and around 50% in series [1] (setting [4]). Also, the “inhibition of cell viability on several cell types in culture” value in the series on human cancer cell lines is “dose-dependent”. Further, the inhibition at 100 µM in series [1] (setting [3]) was 100%; in series [1] (setting [4]), around 70%. Further, in series [2] (human, in vivo, sc), the half-life was around 48 h. Moreover, the disease state entry in series [2] is listed as “apparent stabilization of disease state”. Besides, the toxicity result in series [2] is given as “absence of toxicity”.
